Laboratory results published in PubChem BioAssay (NCI).
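In this assay, cells in 96-well plates receive the compound at five concentrations for 48 hours. Endpoints are linearly interpolated between the surrounding concentrations. TGI marks complete inhibition of growth.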

Experiments:
Experiment in all cases: NCI-60 cell line screen, 48 h
HT29 colon = tested on: HT29 colon
EKVX NSCLC = tested on: EKVX NSCLC
RPMI-8226 leukemia = tested on: RPMI-8226 leukemia
SR leukemia = tested on: SR leukemia
DU-145 prostate = tested on: DU-145 prostate
SF-295 CNS = tested on: SF-295 CNS
ACHN renal = tested on: ACHN renal
NCI-H23 lung = tested on: NCI-H23 lung
CAKI-1 renal = tested on: CAKI-1 renal
SF-539 CNS = tested on: SF-539 CNS
PC-3 prostate = tested on: PC-3 prostate
HL-60(TB) leukemia = tested on: HL-60(TB) leukemia
HCC-2998 colon = tested on: HCC-2998 colon
A498 renal = tested on: A498 renal
U251 CNS = tested on: U251 CNS
UO-31 renal = tested on: UO-31 renal
HOP-62 NSCLC = tested on: HOP-62 NSCLC
MDA-MB-435 = tested on: MDA-MB-435
786-0 renal = tested on: 786-0 renal
KM12 colon = tested on: KM12 colon

Row | Compound | TGI (HT29 colon) | TGI (EKVX NSCLC) | TGI (RPMI-8226 leukemia) | TGI (SR leukemia) | TGI (DU-145 prostate) | TGI (SF-295 CNS) | TGI (ACHN renal) | TGI (NCI-H23 lung) | TGI (CAKI-1 renal) | TGI (SF-539 CNS) | TGI (PC-3 prostate) | TGI (HL-60(TB) leukemia) | TGI (HCC-2998 colon) | TGI (A498 renal) | TGI (U251 CNS) | TGI (UO-31 renal) | TGI (HOP-62 NSCLC) | TGI (MDA-MB-435) | TGI (786-0 renal) | TGI (KM12 colon)
1 | NCCCCC(NC(=O)C(N)Cc1ccc(O)cn1)C(=O)O (stereo not given) | > 100 µM | > 100 µM | > 100 µM | > 100 µM | > 100 µM | > 100 µM | > 100 µM | > 100 µM | > 100 µM | > 100 µM | > 100 µM | > 100 µM | > 100 µM | > 100 µM | > 100 µM | > 100 µM | > 100 µM | > 100 µM | > 100 µM | > 100 µM
2 | COc1cc2ncnc(Nc3cccc(Cl)c3)c2cc1OC | 34.9 µM | 15.7 µM | 42.3 µM | 24.1 µM | 38.3 µM | 42.4 µM | 54.5 µM | 44.5 µM | 25.5 µM | 32.8 µM | 70.2 µM | 62.4 µM | 54.3 µM | 9.84 µM | 79.4 µM | 44 µM | 58.7 µM | 34.1 µM | 44.1 µM | 28.8 µM
3 | OC1(c2ccccc2)C2CCN(CC2)C1CN1CCOCC1 (stereo not given) | > 100 µM | > 100 µM | > 100 µM | > 100 µM | > 100 µM | > 100 µM | > 100 µM | > 100 µM | > 100 µM | > 100 µM | > 100 µM | > 100 µM | > 100 µM | > 100 µM | > 100 µM | > 100 µM | > 100 µM | > 100 µM | > 100 µM | > 100 µM
4 | Ic1ccc2c(c1)N(c1ccccc1)c1cc(N=c3ccc4nc5ccc(I)cc5n(-c5ccccc5)c-4c3)ccc1N2 | 73.1 µM | > 100 µM | > 100 µM | > 100 µM | > 100 µM | > 100 µM | > 100 µM | > 100 µM | > 100 µM | > 100 µM | > 100 µM | 58.2 µM | > 100 µM | > 100 µM | > 100 µM | > 100 µM | > 100 µM | 94 µM | > 100 µM | > 100 µM
5 | O=c1[nH]nc(-c2ccccc2)n1/N=C/c1ccc([N+](=O)[O-])cc1 | > 100 µM | > 100 µM | > 100 µM | > 100 µM | > 100 µM | > 77.7 µM | > 100 µM | > 100 µM | > 59.3 µM | > 100 µM | > 100 µM | > 100 µM | > 83.5 µM | 49.7 µM | 20.8 µM | > 38.1 µM | 25.8 µM | > 100 µM | 22.9 µM | > 100 µM
6 | CC(C)NC(NC(C)C)=C(S(=O)(=O)C(F)(F)C(F)(F)C(F)(F)C(F)(F)F)S(=O)(=O)C(F)(F)C(F)(F)C(F)(F)C(F)(F)F | > 100 µM | > 100 µM | > 100 µM | > 100 µM | > 100 µM | > 100 µM | > 100 µM | > 100 µM | > 100 µM | > 100 µM | > 100 µM | > 100 µM | > 100 µM | > 100 µM | > 100 µM | > 100 µM | > 100 µM | > 100 µM | > 100 µM | > 100 µM
7 | Nc1nc(Cl)c(CO)c(NCC2(CO)CC(CCc3ccccc3)C2)n1 (stereo not given) | 81.6 µM | > 100 µM | 35.2 µM | > 100 µM | > 100 µM | > 100 µM | > 100 µM | 37.5 µM | > 100 µM | > 100 µM | > 100 µM | 28.9 µM | > 100 µM | > 100 µM | > 100 µM | 68.8 µM | 99.3 µM | 26.5 µM | > 100 µM | 14.2 µM
8 | Cc1cc2cc3c(cc2c(-c2ccc([N+](=O)[O-])cc2)n1)OCO3 | > 100 µM | > 100 µM | > 100 µM | > 100 µM | > 100 µM | > 100 µM | > 100 µM | > 100 µM | > 100 µM | 72.4 µM | > 100 µM | > 100 µM | > 100 µM | > 100 µM | > 100 µM | > 100 µM | 40 µM | > 100 µM | 42.5 µM | > 100 µM
